In ChEMBL document CHEMBL1201862, “PubChem BioAssay data set” (2004):
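Each compound was tested at five concentrations against cells in 96-well plates for 48 hours. Abbreviation: GI50, concentration required for 50% inhibition of growth.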 Active and inactive are the calls of the source. Cut-off read from the data, not from the text of the source: active = GI50 up to about 1.1 µM and inactive = higher.

Columns and labels:
Experiment in all cases: growth of human tumour cells (NCI), 48 h
[1] = test system: M19-MEL
[2] = test system: KM-20L2
[3] = test system: DMS-273
[4] = test system: RXF 631
[5] = test system: DMS-114
[6] = test system: SNB-78
[7] = test system: DLD-1
[8] = test system: XF498
[9] = test system: HOP-18

Row | Structure (SMILES) | GI50 [1] | GI50 [2] | GI50 [3] | GI50 [4] | GI50 [5] | GI50 [6] | GI50 [7] | GI50 [8] | GI50 [9]
1 | CS(=O)(=O)ON1C(=O)c2ccc(N)cc2C1=O | > 59.8 µM (inactive) | > 100 µM (inactive) | > 100 µM (inactive) | > 100 µM (inactive) | > 74.5 µM (inactive) | > 100 µM (inactive) | > 65.8 µM (inactive) | > 79.1 µM (inactive) | > 100 µM (inactive)
2 | O=C1C=CC2(C=C1)CCNC1=C2C(=O)c2ccccc2C1=O | 32.5 µM (inactive) | > 100 µM (inactive) | > 100 µM (inactive) | > 100 µM (inactive) | > 100 µM (inactive) |  | > 100 µM (inactive) | > 100 µM (inactive) | 
3 | c1ccc2c3c([nH]c2c1)[C@H]1C2CCCCN2CN1CC3 (stereo partly drawn) | > 100 µM (inactive) | > 100 µM (inactive) | > 100 µM (inactive) | > 100 µM (inactive) | 47.8 µM (inactive) | 94.4 µM (inactive) | > 100 µM (inactive) | > 100 µM (inactive) | > 100 µM (inactive)
4 | c1cc(-c2cn3ccsc3n2)ccn1 | > 60.5 µM (inactive) | > 31.6 µM (inactive) | 32.7 µM (inactive) | > 100 µM (inactive) | > 66.5 µM (inactive) | > 100 µM (inactive) | > 100 µM (inactive) | > 100 µM (inactive) | > 100 µM (inactive)
5 | N#CC(NNC(=O)c1ccccc1O)c1cccc(O)c1 (stereo not drawn) |  | 33.7 µM (inactive) | 2.32 µM (inactive) |  | 3.61 µM (inactive) | 4.89 µM (inactive) | 4.54 µM (inactive) |  | 35.3 µM (inactive)
6 | C=C(OC1C(C)=C2C(C1OC(=O)CCCCCCC)C(C)(OC(C)=O)CC(OC(=O)CCC)C1(O)C2OC(=O)C1(C)O)/C(C)=C/C (stereo not drawn) | 0.0125 µM (active) | 0.0314 µM (active) | 0.0125 µM (active) |  | 0.0125 µM (active) | 0.015 µM (active) | 0.843 µM (active) | 0.348 µM (active) | 0.0125 µM (active)
7 | Cn1cc(NC(=O)c2cc(NC(=O)CCCCCCC(=O)Nc3cc(C(=O)Nc4cc(C(=O)NCCC(=N)N)n(C)c4)n(C)c3)cn2C)cc1C(=O)NCCC(=N)N | 2.82 µM (inactive) | > 100 µM (inactive) | 3.82 µM (inactive) |  | 2.47 µM (inactive) | 24.2 µM (inactive) | 18.9 µM (inactive) | 34.9 µM (inactive) | 15.5 µM (inactive)
8 | COc1ccc(-c2cc(C(=O)Nc3ccc(C)c(C)c3)nc(NC#N)n2)cc1 | > 100 µM (inactive) | > 100 µM (inactive) | > 100 µM (inactive) |  | > 100 µM (inactive) | > 100 µM (inactive) | > 100 µM (inactive) | > 100 µM (inactive) | 0.562 µM (active)
9 | CN(CCO)c1nc(=O)c2c(n1C1OC(CO)C(O)C(O)C1O)CCCC2 (stereo not drawn) | > 100 µM (inactive) | > 100 µM (inactive) | > 100 µM (inactive) |  | > 100 µM (inactive) | > 100 µM (inactive) | > 100 µM (inactive) | > 100 µM (inactive) | > 100 µM (inactive)
10 | O=C1c2ccccc2C(=O)c2c(/C=C\N3CCCCC3)ccnc21 | 0.237 µM (active) | 15.5 µM (inactive) | 2.3 µM (inactive) | 8.22 µM (inactive) | 0.813 µM (active) | 18.7 µM (inactive) | 1.39 µM (inactive) | 11.1 µM (inactive) | 1.25 µM (inactive)
11 | N#Cc1cccc(-n2[nH]c(=O)ccc2=O)c1 | > 100 µM (inactive) | > 100 µM (inactive) | > 100 µM (inactive) |  | > 100 µM (inactive) |  | > 100 µM (inactive) |  | 
12 | N=C(N)C1=C(O)NC(=O)N(C2CCCCC2)C1 | > 100 µM (inactive) | > 100 µM (inactive) | > 100 µM (inactive) |  | > 100 µM (inactive) | > 100 µM (inactive) | > 100 µM (inactive) |  | > 100 µM (inactive)
13 | COCN1C(=O)C2CC(/C=C/C(N)=O)=CN2C(=O)c2ccccc21 (stereo not drawn) | > 100 µM (inactive) | > 100 µM (inactive) | > 100 µM (inactive) |  | > 100 µM (inactive) | > 100 µM (inactive) | > 100 µM (inactive) | > 100 µM (inactive) | > 100 µM (inactive)
14 | Cc1ccc(C(=O)O)cc1NC(=O)c1cc(/C=C/c2ccccc2)[nH]c(=S)n1 |  | > 100 µM (inactive) | > 57.4 µM (inactive) | > 100 µM (inactive) | > 57 µM (inactive) | > 100 µM (inactive) | > 49.8 µM (inactive) | > 100 µM (inactive) | > 100 µM (inactive)
15 | COc1cc2nncc(Sc3cnnc4ccccc34)c2cc1OC | 30.7 µM (inactive) | 25.6 µM (inactive) | 29.7 µM (inactive) | 23 µM (inactive) | 9.95 µM (inactive) | 6 µM (inactive) | 19.6 µM (inactive) |  | 16.5 µM (inactive)
16 | O=C(N/C=C/C=C/Sc1ccccc1)OCc1ccccc1 | 17.2 µM (inactive) | 17.2 µM (inactive) | 16.6 µM (inactive) | 19.1 µM (inactive) | 16.6 µM (inactive) | 40.2 µM (inactive) | 14.1 µM (inactive) | 20.4 µM (inactive) | 28.1 µM (inactive)
17 | O=[N+]([O-])c1ccc(-c2noc(-c3ccccc3)c2C2=NCCN2)cc1 | > 100 µM (inactive) | 40.5 µM (inactive) |  | 60.3 µM (inactive) |  | 39.2 µM (inactive) | > 100 µM (inactive) | 70.6 µM (inactive) | 21.1 µM (inactive)
18 | C#CCn1c(=O)c2cccnc2n(CC#C)c1=O |  |  | > 100 µM (inactive) |  |  | > 100 µM (inactive) | > 100 µM (inactive) | > 100 µM (inactive) | > 100 µM (inactive)
19 | NNC(=O)C(=O)N/N=C1\CCCC1C(=O)CCC(=O)Nc1cccc(Cl)c1 (stereo not drawn) | > 100 µM (inactive) | > 100 µM (inactive) |  | > 100 µM (inactive) | > 100 µM (inactive) | > 100 µM (inactive) | > 100 µM (inactive) | > 100 µM (inactive) | > 100 µM (inactive)
20 | CCN(CC)CC1c2ccccc2C(CNc2ccccc2)N1C (stereo not drawn) | > 100 µM (inactive) | > 100 µM (inactive) | > 100 µM (inactive) | > 100 µM (inactive) | > 100 µM (inactive) | > 100 µM (inactive) | 70.8 µM (inactive) | > 100 µM (inactive) | 
21 | C/C(=N\[N+](C)(C)C)C(c1ccccc1)C1(c2ccccc2)C(c2ccccc2)=C1c1ccccc1 (stereo not drawn) | > 100 µM (inactive) | > 100 µM (inactive) | > 100 µM (inactive) |  |  | 50.5 µM (inactive) | > 100 µM (inactive) | 22.6 µM (inactive) | 
22 | CCN(CC)CCOC(c1ccccc1)c1ccccc1.CCOC(=O)Nc1ccc(S(=O)(=O)NCCCl)cc1.CCOC(=O)Nc1ccc(S(=O)(=O)NCCCl)cc1.Nc1ccc(C(=O)O)c(O)c1 | > 100 µM (inactive) | > 100 µM (inactive) |  | > 100 µM (inactive) | > 100 µM (inactive) | > 100 µM (inactive) | > 100 µM (inactive) |  | > 100 µM (inactive)
23 | O.O=C([O-])c1ccccc1Nc1ccccc1C(=O)[O-].[Zn+2] | 17.3 µM (inactive) | 94 µM (inactive) | 15.7 µM (inactive) |  | 17.5 µM (inactive) | 37.2 µM (inactive) | 29.2 µM (inactive) | 25.1 µM (inactive) | > 52.6 µM (inactive)
24 | Cc1oc2c(C)c3oc(=O)cc(C)c3cc2c1CNC(=O)[C@@H]1OCCOCCOCCOCCOCCOC1C(=O)O (stereo partly drawn) | > 100 µM (inactive) | > 100 µM (inactive) | > 100 µM (inactive) | 36.1 µM (inactive) | > 100 µM (inactive) | > 100 µM (inactive) | > 100 µM (inactive) | > 10 µM (inactive) | > 100 µM (inactive)
25 | NC(=O)c1nnn(Cc2cc(Cl)c(C(=O)c3ccc(Cl)cc3)c(Cl)c2)c1N [CARBOXYAMIDOTRIAZOLE] | > 9.1 µM (inactive) | > 9.1 µM (inactive) | > 9.1 µM (inactive) | 11.7 µM (inactive) | 6.1 µM (inactive) | > 9.1 µM (inactive) | > 9.1 µM (inactive) | > 9.1 µM (inactive) | > 9.1 µM (inactive)
